{"source": "patent US8906911B2", "about": "“Chemokine receptor antagonists” (AbbVie Inc., priority 2012, dated 2014)", "key": {"CCR2 [1]": {"biological_target": "CCR2 (Rattus norvegicus (Rat), UniProt O55193)", "sequence (O55193 whole entry)": "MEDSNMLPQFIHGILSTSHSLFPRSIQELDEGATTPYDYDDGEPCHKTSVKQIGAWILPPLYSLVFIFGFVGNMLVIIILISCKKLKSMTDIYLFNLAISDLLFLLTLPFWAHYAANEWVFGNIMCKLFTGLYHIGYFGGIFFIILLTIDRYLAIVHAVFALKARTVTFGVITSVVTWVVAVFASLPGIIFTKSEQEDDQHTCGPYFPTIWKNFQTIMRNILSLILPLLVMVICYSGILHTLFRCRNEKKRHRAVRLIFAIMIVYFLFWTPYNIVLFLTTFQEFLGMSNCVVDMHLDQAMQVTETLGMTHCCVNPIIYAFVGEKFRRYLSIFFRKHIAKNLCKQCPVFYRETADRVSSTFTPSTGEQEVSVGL", "settings": "direct injection of MCP-1 in the spinal cord; cited from earlier work"}, "CCR2 [2]": {"system": "CCR2", "settings": "in vivo; cited from earlier work"}, "rat CCR2": {"biological_target": "rat CCR2 (Rattus norvegicus (Rat), UniProt O55193)", "sequence (O55193 whole entry)": "as above", "experiment": "Inhibition of native agonist (rat MCP-1)-induced intracellular calcium release, calcium flux assay in CHO cells expressing rat CCR2 and Gα16", "assay_type": "cell-based", "settings": "read-out: rCCR2 Kb", "outline": "(§1)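 Compound added to Calcium 4 dye-loaded adherent cells (dye loading 60 min, 37° C., HEPES pH 7.4 buffer with probenecid), then agonist: human MCP-1 at 2 nM final for hCCR2B cells, rat MCP-1 at 4 nM final for rCCR2 cells. FLIPR fluorescence change gave IC50. Kb=IC50/(1+[agonist]/EC50). Final DMSO 0.25%.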"}, "human CCR2B [3]": {"biological_target": "T1, human CCR2B (Homo sapiens (Human), UniProt P41597)", "T1 sequence (P41597 other isoform, or with tags, fused parts or gaps)": "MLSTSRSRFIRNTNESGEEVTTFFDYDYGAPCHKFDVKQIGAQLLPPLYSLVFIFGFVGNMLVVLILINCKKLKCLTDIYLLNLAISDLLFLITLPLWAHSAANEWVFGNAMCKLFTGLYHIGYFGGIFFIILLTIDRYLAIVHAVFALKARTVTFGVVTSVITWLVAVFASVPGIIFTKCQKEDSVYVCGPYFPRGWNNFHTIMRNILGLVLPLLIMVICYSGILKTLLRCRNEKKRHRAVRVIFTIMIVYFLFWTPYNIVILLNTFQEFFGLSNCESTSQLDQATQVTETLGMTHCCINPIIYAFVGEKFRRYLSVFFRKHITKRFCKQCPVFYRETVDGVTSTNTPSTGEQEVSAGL", "experiment": "Inhibition of native agonist (human MCP-1)-induced intracellular calcium release, calcium flux assay in CHO cells expressing human CCR2B and Gα16", "assay_type": "cell-based", "settings": "for IC50: read-out: hCCR2B IC50; for Kb: read-out: hCCR2B Kb", "outline": "as §1"}, "human CCR2B [4]": {"biological_target": "T1, human CCR2B", "experiment": "Inhibition of [125I]-labeled MCP-1 binding to hCCR2B (radioligand binding in CHO cells)", "settings": "mean Ki; [125I]-MCP-1 50 pM; CHO cells expressing human CCR2B and Gα16", "excerpt": "CHO cells expressing human CCR2B were generated as follows. cDNA for human CCR2B (cloned from human blood) was cloned into plasmid pcDNA3.1 (from Invitrogen). The resulting plasmids were separately transfected into CHO cells expressing human Gα16 (from Molecular Devices). […] CHO cells expressing rat CCR2 were generated as follows. cDNA for rat CCR2 (cloned from rat macrophage) was cloned into plasmid pEF-flag (from Chinese Academy of Science). The resulting plasmids were transfected into CHO cells expressing human Gα16 (from […]).\nInhibition of [^125I]-Labeled MCP-1 Binding to hCCR2B\nRadioligand binding assays were performed in CHO cells expressing human CCR2B and Gα16 coupling protein. All compounds were dissolved in DMSO and assays run at a final DMSO concentration of 0.5% (v/v). [^125I]-labeled human MCP-1 was purchased from PerkinElmer. Unlabelled human MCP-1 was purchased from PeproTech.\nCompounds were serially diluted in DMSO before diluting into assay buffer (25 mM HEPES, pH 7.4, 5 mM MgCl2, 1 mM CaCl2, 0.5% BSA) with cryo preserved CHO cells expressing human CCR2B and the Gα16 coupling protein (30×10^3/well) and [^125I]-MCP-1 (50 pM). The reaction was incubated at room temperature for 90 minutes before transferring to GF/C filter membrane (PerkinElmer) pre-treated with 0.3% polyethyleneimine for 2 hours at 4° C. The filter membrane was washed six times with ice cold wash buffer (25 mM HEPES, pH 7.4, 5 mM MgCl2, 1 mM CaCl2, 500 mM NaCl, 0.01% (m/v) azide), dried, and sealed in a RLB sample bag (Agilent Technologies) before adding 5.0 mL Microscint 20 to each bag. Membrane was counted on Microbeta counter where background binding was determined by the presence of 100 nM MCP-1 and control total binding was determined by addition of DMSO in place of the test compound. The radioactivity values (cpm) were used to calculate the percent inhibition at a given compound concentration and the data fit to a sigmoidal curve in a semi-log plot to determine IC50 values. The corresponding Ki value is calculated as follows:\nKi=IC50/(1+[radioligand]/Kd), where [radioligand] is the concentration of the label and Kd (dissociation constant) is determined in saturation experiment with different concentrations of labeled MCP-1."}}, "note": "Like-named read-outs stand apart in the source and are kept apart here."}
{"smiles": "CCO[C@H]1CN(C2CCC(O)(c3ccc4c(c3)OCO4)CC2)C[C@@H]1NC(=O)CNC(=O)c1cccc(C(F)(F)F)c1", "note": "(some centres unmarked) [INCB3344]", "values": [{"measurement": "MCP-1 induced pronociception (thermal hyperalgesia and mechanical allodynia)", "setting": "CCR2 [1]", "value": "blocked"}]}
{"smiles": "O=C1Nc2ccccc2C2(CCN(CCc3ccc(C(F)(F)F)cc3)CC2)O1", "note": "[RS102895]", "values": [{"measurement": "hyperalgesia induced by MCP-1 injection in the RVM", "setting": "CCR2 [2]", "value": "reversed"}]}
{"smiles": "CO[C@@H]1COCC[C@@H]1N[C@@H]1C[C@H]2CCC[C@@]2(C(=O)N2C[C@@H]3C[C@H]2CN3C(=O)OC(C)(C)C)C1", "note": "[Example 60, 1,5-anhydro-3-{[(2R,3aR,6aR)-3a-{[(1S,4S)-5-(tert-butoxycarbonyl)-2,5-diazabicyclo[2.2.1]hept-2-yl]carbonyl}octahydropentalen-2-yl]amino}-2,3-dideoxy-4-O-methyl-D-erythro-pentitol]", "values": [{"measurement": "Kb", "setting": "rat CCR2", "value": 19, "unit": "nM"}, {"measurement": "IC50", "setting": "human CCR2B [3]", "value": 328, "unit": "nM"}, {"measurement": "Kb", "setting": "human CCR2B [3]", "value": 81, "unit": "nM"}, {"measurement": "Ki", "setting": "human CCR2B [4]", "value": 552, "unit": "nM"}]}
{"smiles": "CO[C@@H]1COCC[C@@H]1N[C@@H]1C[C@H]2CCC[C@@]2(C(=O)N2C[C@@H]3C[C@H]2CN3c2cccc(C(F)(F)F)c2)C1", "note": "[Example 18, 1,5-anhydro-2,3-dideoxy-4-O-methyl-3-{[(2R,3aR,6aR)-3a-({(1S,4S)-5-[3-(trifluoromethyl)phenyl]-2,5-diazabicyclo[2.2.1]hept-2-yl}carbonyl)octahydropentalen-2-yl]amino}-D-erythro-pentitol]", "values": [{"measurement": "Kb", "setting": "rat CCR2", "value": 6, "unit": "nM"}, {"measurement": "IC50", "setting": "human CCR2B [3]; calcium flux, human MCP-1 2 nM", "value": 76.4, "unit": "nM"}, {"measurement": "Kb", "setting": "human CCR2B [3]", "value": 19, "unit": "nM"}, {"measurement": "Ki", "setting": "human CCR2B [4]", "value": 207, "unit": "nM"}]}
{"smiles": "CO[C@@H]1COCC[C@@H]1N[C@@H]1C[C@H]2CCC[C@@]2(C(=O)N2C[C@@H]3C[C@H]2CN3c2ncc(C(F)(F)F)cc2Cl)C1", "note": "[Example 32, 1,5-anhydro-3-{[(2R,3aR,6aR)-3a-({(1S,4S)-5-[3-chloro-5-(trifluoromethyl)pyridin-2-yl]-2,5-diazabicyclo[2.2.1]hept-2-yl}carbonyl)octahydropentalen-2-yl]amino}-2,3-dideoxy-4-O-methyl-D-erythro-pentitol]", "values": [{"measurement": "Kb", "setting": "rat CCR2", "value": 44, "unit": "nM"}, {"measurement": "IC50", "setting": "human CCR2B [3]; calcium flux, human MCP-1 2 nM", "value": 314, "unit": "nM"}, {"measurement": "Kb", "setting": "human CCR2B [3]", "value": 77, "unit": "nM"}, {"measurement": "Ki", "setting": "human CCR2B [4]", "value": 1060, "unit": "nM"}]}
{"smiles": "C[C@@H]1COCC[C@@H]1N[C@@H]1C[C@H]2CCC[C@@]2(C(=O)N2C[C@@H]3C[C@H]2CN3c2cc(C(F)(F)F)ccn2)C1", "note": "[Example 63, [(2R,3aR,6aR)-2-{[(3S,4S)-3-methyltetrahydro-2H-pyran-4-yl]amino}hexahydropentalen-3a(1H)-yl]{(1S,4S)-5-[4-(trifluoromethyl)pyridin-2-yl]-2,5-diazabicyclo[2.2.1]hept-2-yl}methanone]", "values": [{"measurement": "Kb", "setting": "rat CCR2", "value": 6, "unit": "nM"}, {"measurement": "IC50", "setting": "human CCR2B [3]; calcium flux, human MCP-1 2 nM", "value": 17.9, "unit": "nM"}, {"measurement": "Kb", "setting": "human CCR2B [3]", "value": 4, "unit": "nM"}, {"measurement": "Ki", "setting": "human CCR2B [4]", "value": 10, "unit": "nM"}]}
{"smiles": "CO[C@@H]1COCC[C@@H]1N[C@@H]1C[C@H]2CCC[C@@]2(C(=O)N2C[C@@H]3C[C@H]2CN3c2ccc(Cl)c(C#N)c2)C1", "note": "[Example 47, 1,5-anhydro-3-{[(2R,3aR,6aR)-3a-{[(1S,4S)-5-(4-chloro-3-cyanophenyl)-2,5-diazabicyclo[2.2.1]hept-2-yl]carbonyl}octahydropentalen-2-yl]amino}-2,3-dideoxy-4-O-methyl-D-erythro-pentitol]", "values": [{"measurement": "Kb", "setting": "rat CCR2", "value": 4, "unit": "nM"}, {"measurement": "IC50", "setting": "human CCR2B [3]", "value": 49.8, "unit": "nM"}, {"measurement": "Kb", "setting": "human CCR2B [3]", "value": 12, "unit": "nM"}, {"measurement": "Ki", "setting": "human CCR2B [4]", "value": 77, "unit": "nM"}]}
{"smiles": "CC[C@@H]1COCC[C@H]1N[C@@H]1C[C@H]2CCC[C@@]2(C(=O)N2C[C@@H]3C[C@H]2CN3c2cc(C(F)(F)F)ccn2)C1", "note": "[Example 66, [(2R,3aR,6aR)-2-{[(3S,4R)-3-ethyltetrahydro-2H-pyran-4-yl]amino}hexahydropentalen-3a(1H)-yl]{(1S,4S)-5-[4-(trifluoromethyl)pyridin-2-yl]-2,5-diazabicyclo[2.2.1]hept-2-yl}methanone]", "values": [{"measurement": "Kb", "setting": "rat CCR2", "value": 8, "unit": "nM"}, {"measurement": "IC50", "setting": "human CCR2B [3]; calcium flux, human MCP-1 2 nM", "value": 45.8, "unit": "nM"}, {"measurement": "Kb", "setting": "human CCR2B [3]", "value": 11, "unit": "nM"}, {"measurement": "Ki", "setting": "human CCR2B [4]", "value": 13, "unit": "nM"}]}
